The results in this text go back to patent publication US12559450B2, “Lipidoids for nucleic acid transfection and use thereof” (Ustav Organicke Chemie a Biochemie AV CR, v.v.i., priority 2020, dated 2026).

What is called EC50 is the concentration giving half of the maximal effect.

One data set relates to U2OS. Kind of data set: Cellular toxicity of mRNA-LNP, CellTiterGlo 2.0 viability. The data set is classed as cell-based, human. As to conditions: total lipid 100 μM (context of the sentence). On the procedure: A human cell line derived from embryonic kidney cells (HEK293), the same line expressing SV40 large T antigen (HEK293T), human osteosarcoma-derived cell line (U2OS), and human hepatocyte carcinoma cell line (HepG2) were cultured in 96-well plates (5×10^4 cells in 100 μl of culture medium per well) in Dulbecco's modified medium (DMEM) or in IMDM medium (Iscove's Modified Dulbecco's medium) supplemented with 10% foetal bovine serum (FBS) at 37° C. in 5% CO2. Cells were transfected with 2 μl of mRNA-LNPs generated in triplicates in Example 25 (the final total concentration of all lipid components in the well was 20 μM) or 10 μl of mRNA-LNPs (the final total concentration of all lipid components in the well was 100 μM) and subsequently incubated for 24 hours. The cytotoxicity of LNPs was analysed in a CellTiterGlo 2.0 cell viability assay (Promega, USA). Cell viability was normalized to non-transfected cells (control).

A further data set has as its target STING protein (Homo sapiens, UniProt Q86WV6, H232R). The data set is described as follows: STING activation reporter assay (ISRE luciferase, HEK293T) with cGAMP-LNPs. As to conditions: read-out: EC50 STING activation; 2′,3′-cGAMP transfected with cGAMP-LNPs.

Chain of STING protein (Q86WV6 whole entry H232R): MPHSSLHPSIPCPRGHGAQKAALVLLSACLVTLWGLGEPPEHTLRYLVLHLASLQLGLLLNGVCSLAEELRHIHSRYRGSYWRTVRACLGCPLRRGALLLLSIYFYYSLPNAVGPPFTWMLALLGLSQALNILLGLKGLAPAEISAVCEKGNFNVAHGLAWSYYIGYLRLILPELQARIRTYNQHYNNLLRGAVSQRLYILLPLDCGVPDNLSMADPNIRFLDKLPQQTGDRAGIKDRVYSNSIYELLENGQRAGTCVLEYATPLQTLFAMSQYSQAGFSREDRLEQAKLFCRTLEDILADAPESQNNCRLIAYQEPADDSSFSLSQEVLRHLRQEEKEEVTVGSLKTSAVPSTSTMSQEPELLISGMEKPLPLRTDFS
Procedure for STING protein: Cells were transferred to poly-D-lysine (Sigma-Aldrich)-coated 96-well plates (Greiner Bio-One) at a density of 2.5×10^4 in DMEM medium containing glucose (containing L-glutamine; Biowest) supplemented with 10% FBS (Capricorn Scientific) and 1% penicillin-streptomycin (Biowest). After incubation at 37° C. in 5% CO2 overnight, serially diluted compounds were added to the cells for 7 hours. In parallel, HEK293T cells were incubated with the test compounds alone for 30 minutes, washed twice with fresh medium, and then cultured for an additional 6.5 hours. Finally, 50 μl of cell culture medium was mixed with 30 μl of Bright-Glo Luciferase Assay System reagent (Promega) in white 96-well plates and luminescence was read in a Spark® spectrophotometer (TECAN, Grodig).

`CCCCCCCCCCCCN(CCCCCCCCCCCC)CCCCCNC(=O)C12CC3CC(C(=O)NCCCCCN(CCCCCCCCCCCC)CCCCCCCCCCCC)(C1)CC(C(=O)NCCCCCN(CCCCCCCCCCCC)CCCCCCCCCCCC)(C3)C2` [4d]: the “toxicity of particles formed by the lipidoid (in words)” value with U2OS is listed as “non-toxic”. Further, the concentration for a half-maximal effect (EC50) at STING protein turned out to be 2 ± 0.36 nM.
